In the test the target is T1, human kinase Mps-1 (Homo sapiens, UniProt P33981).
T1 construct: N-terminally GST-tagged human full length recombinant Mps-1 kinase; GST (N); purchased Invitrogen, Karslruhe, Germany PV4071
T1 sequence (P33981 1-857): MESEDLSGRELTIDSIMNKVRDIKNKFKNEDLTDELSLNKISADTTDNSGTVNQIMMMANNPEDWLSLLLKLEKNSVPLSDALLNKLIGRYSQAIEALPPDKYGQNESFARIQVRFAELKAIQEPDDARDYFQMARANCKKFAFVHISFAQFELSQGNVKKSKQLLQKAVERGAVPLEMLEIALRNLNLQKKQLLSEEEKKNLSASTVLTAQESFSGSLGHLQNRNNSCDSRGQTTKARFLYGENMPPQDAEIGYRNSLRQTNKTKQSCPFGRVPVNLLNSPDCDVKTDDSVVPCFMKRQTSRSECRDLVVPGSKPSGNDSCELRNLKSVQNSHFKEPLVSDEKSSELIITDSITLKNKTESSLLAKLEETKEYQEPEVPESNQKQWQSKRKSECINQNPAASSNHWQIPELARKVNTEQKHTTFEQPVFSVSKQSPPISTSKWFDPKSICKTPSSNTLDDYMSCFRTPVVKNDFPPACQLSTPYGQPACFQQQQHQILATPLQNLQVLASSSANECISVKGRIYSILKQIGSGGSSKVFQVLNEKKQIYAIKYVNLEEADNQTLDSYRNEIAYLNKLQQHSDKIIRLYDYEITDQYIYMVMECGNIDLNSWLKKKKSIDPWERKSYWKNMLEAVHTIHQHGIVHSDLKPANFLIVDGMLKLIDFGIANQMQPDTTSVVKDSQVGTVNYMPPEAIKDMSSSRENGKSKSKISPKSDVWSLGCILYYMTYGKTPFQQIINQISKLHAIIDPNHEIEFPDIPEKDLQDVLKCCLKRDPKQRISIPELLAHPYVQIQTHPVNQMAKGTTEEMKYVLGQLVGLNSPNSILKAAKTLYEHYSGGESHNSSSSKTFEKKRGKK
The experiment in a line: Mps-1 kinase assay (TR-FRET). The format is biochemical. The note with it: GST-tagged human full length recombinant Mps-1; 10 μM ATP; 1 μM peptide substrate; 60 min at 22° C. As for the experimental part: The human kinase Mps-1 phosphorylates a biotinylated substrate peptide. Detection of the phosphorylated product is achieved by time-resolved fluorescence resonance energy transfer (TR-FRET) from Europium-labelled anti-phospho-Serine/Threonine antibody as donor to streptavidin labelled with cross-linked allophycocyanin (SA-XLent) as acceptor. Compounds are tested for their inhibition of the kinase activity.
N-terminally GST-tagged human full length recombinant Mps-1 kinase (purchased from Invitrogen, Karslruhe, Germany, cat. no PV4071) was used. As substrate for the kinase reaction a biotinylated peptide of the amino-acid sequence […] (C-terminus in amide form, purchased from Biosynthan GmbH, Berlin) was used.
The concentration of Mps-1 in the assay was adjusted to the activity of the enzyme lot and was chosen appropriate to have the assay in the linear range, typical enzyme concentrations were in the range of about 1 nM (final conc. in the 5 μl assay volume).
The resulting mixture was incubated 1 h at 22° C. to allow the binding of the phosphorylated peptide to the anti-phospho(Ser/Thr)-Europium-antibody. Subsequently the amount of phosphorylated substrate was evaluated by measurement of the resonance energy transfer from the Europium-labelled anti-phospho(Ser/Thr) antibody to the Streptavidin-XLent. Therefore, the fluorescence emissions at 620 nm and 665 nm after excitation at 350 nm was measured in a Viewlux TR-FRET reader (PerkinElmer LAS, Rodgau-Jügesheim, Germany). The “blank-corrected normalized ratio” (a Viewlux specific readout, similar to the traditional ratio of the emissions at 665 nm and at 622 nm, in which blank and Eu-donor crosstalk are subtracted from the 665 nm signal before the ratio is calculated) was taken as the measure for the amount of phosphorylated substrate.
For orientation: In TR-FRET formats the signal depends on donor and acceptor labels being close together.
The term IC50 denotes the concentration that inhibits the measured activity by half. Regarding `CC(C)CNc1nc(-c2ccncc2)cn2c(-c3ccc(C(=O)NC4CC4)cc3)cnc12` [Example 1-1, N-cyclopropyl-4-{8-[(2-methylpropyl)amino]-6-(pyridin-4-yl)imidazo[1,2-a]pyrazin-3-yl}benzamide], the IC50 is 1.8 nM.
The result for `CC(C)CNc1nc(-c2cnc3ccccc3c2)cn2c(-c3ccc(C(=O)NC4CC4)cc3)cnc12` [Example 1-2, N-cyclopropyl-4-{8-[(2-methylpropyl)amino]-6-(quinolin-3-yl)imidazo [1,2-a]pyrazin-3-yl} benzamide] reads 43.8 nM; that for `COc1ncc(-c2cn3c(-c4ccc(C(=O)NC5CC5)cc4)cnc3c(NCC(C)C)n2)cn1` [Example 1-3, N-cyclopropyl-4-{6-(2-methoxypyrimidin-5-yl)-8-[(2-methylpropyl)amino]imidazo[1,2-a]pyrazin-3-yl}benzamide], 12.7 nM; that for `CC(C)CNc1nc(-c2ccnc3ccccc23)cn2c(-c3ccc(C(=O)NC4CC4)cc3)cnc12` [Example 1-4, N-cyclopropyl-4-{8-[(2-methylpropyl)amino]-6-(quinolin-4-yl)imidazo [1,2-a]pyrazin-3-yl} benzamide], 3.3 nM.
The same measure for `CC(C)CNc1nc(-c2ccc(F)nc2)cn2c(-c3ccc(C(=O)NC4CC4)cc3)cnc12` [Example 1-5, N-cyclopropyl-4-{6-(6-fluoropyridin-3-yl)-8-[(2-methylpropyl)amino]imidazo[1,2-a]pyrazin-3-yl}benzamide]: 4.2 nM; for `CC(C)CNc1nc(-c2ccc3c(ccn3C)c2)cn2c(-c3ccc(C(=O)NC4CC4)cc3)cnc12` [Example 1-6, N-cyclopropyl-4-{6-(1-methyl-1H-indol-5-yl)-8-[(2-methylpropyl)amino]imidazo[1,2-a]pyrazin-3-yl}benzamide]: 6.8 nM.
The result for `CC(C)CNc1nc(-c2ccnc(Cl)c2)cn2c(-c3ccc(C(=O)NC4CC4)cc3)cnc12` [Example 1-7, 4-{6-(2-chloropyridin-4-yl)-8-[(2-methylpropyl)amino]imidazo[1,2-a]pyrazin-3-yl}-N-cyclo-propylbenzamide] reads 4.2 nM.
As for `CC(C)CNc1nc(-c2cnn(C)c2)cn2c(-c3ccc(C(=O)NC4CC4)cc3)cnc12` [Example 1-8, N-cyclopropyl-4-{8-[(2-methylpropyl)amino]-6-(1-methyl-1H-pyrazol-4-yl)imidazo[1,2-a]pyrazin-3-yl}benzamide], the IC50 was 4.6 nM.
The result for `CC(C)CNc1nc(-c2cccs2)cn2c(-c3ccc(C(=O)NC4CC4)cc3)cnc12` [Example 1-9, N-cyclopropyl-4-{8-[(2-methylpropyl)amino]-6-(thiophen-2-yl)imidazo [1,2-a]pyrazin-3-yl} benzamide] reads 8 nM; that for `CC(C)CNc1nc(-c2ccsc2)cn2c(-c3ccc(C(=O)NC4CC4)cc3)cnc12` [Example 1-10, N-cyclopropyl-4-{8-[(2-methylpropyl)amino]-6-(thiophen-3-yl)imidazo [1,2-a]pyrazin-3-yl} benzamide], 3.4 nM; that for `CC(C)CNc1nc(-c2cc3ccccc3o2)cn2c(-c3ccc(C(=O)NC4CC4)cc3)cnc12` [Example 1-11, 4-{6-(1-benzofuran-2-yl)-8-[(2-methylpropyl)amino]imidazo[1,2-a]pyrazin-3-yl}-N-cyclo-propylbenzamide], 78.8 nM.
The same measure for `CC(C)CNc1nc(-c2cc3ccccc3s2)cn2c(-c3ccc(C(=O)NC4CC4)cc3)cnc12` [Example 1-12, 4-{6-(1-benzothiophen-2-yl)-8-[(2-methylpropyl)amino]imidazo[1,2-a]pyrazin-3-yl}-N-cyclo-propylbenzamide]: 142 nM.
The result for `CC(C)CNc1nc(-c2ccnn2C)cn2c(-c3ccc(C(=O)NC4CC4)cc3)cnc12` [Example 1-13, N-cyclopropyl-4-{8-[(2-methylpropyl)amino]-6-(1-methyl-1H-pyrazol-5-yl)imidazo[1,2-a]pyrazin-3-yl}benzamide] reads 29.5 nM; that for `CC(C)CNc1nc(-c2csc3ccccc23)cn2c(-c3ccc(C(=O)NC4CC4)cc3)cnc12` [Example 1-14, 4-{6-(1-benzothiophen-3-yl)-8-[(2-methylpropyl)amino]imidazo[1,2-a]pyrazin-3-yl}-N-cyclo-propylbenzamide], 6.9 nM.
As to `Cc1ccc(-c2cn3c(-c4ccc(C(=O)NC5CC5)cc4)cnc3c(NCC(C)C)n2)s1` [Example 1-15, N-cyclopropyl-4-{8-[(2-methylpropyl)amino]-6-(5-methylthiophen-2-yl)imidazo[1,2-a]pyrazin-3-yl}benzamide], the IC50 turned out to be 55.4 nM.
The result for `Cc1ccc2sc(-c3cn4c(-c5ccc(C(=O)NC6CC6)cc5)cnc4c(NCC(C)C)n3)cc2c1` [Example 1-16, N-cyclopropyl-4-{6-(5-methyl-1-benzothiophen-2-yl)-8-[(2-methylpropyl)amino]imidazo[1,2-a]pyrazin-3-yl}benzamide] reads 104 nM.
The same measure for `CC(C)CNc1nc(-c2cncnc2)cn2c(-c3ccc(C(=O)NC4CC4)cc3)cnc12` [Example 1-17, N-cyclopropyl-4-{8-[(2-methylpropyl)amino]-6-(pyrimidin-5-yl)imidazo [1,2-a]pyrazin-3-yl} benzamide]: 16.5 nM.
The result for `CC(=O)NCc1ccc(-c2cn3c(-c4ccc(C(=O)NC5CC5)cc4)cnc3c(NCC(C)C)n2)cc1` [Example 1-18, 4-(6-{4-[(acetylamino)methyl]phenyl}-8-[(2-methylpropyl)amino]imidazo[1,2-a]pyrazin-3-yl)-N-cyclopropyl-benzamide] reads 1.6 nM; that for `CC(C)CNc1nc(-c2ccc3nccn3c2)cn2c(-c3ccc(C(=O)NC4CC4)cc3)cnc12` [Example 1-19, N-cyclopropyl-4-{6-(imidazo[1,2-a]pyridin-6-yl)-8-[(2-methylpropyl)amino]imidazo[1,2-a]pyrazin-3-yl}benzamide], 2.2 nM; that for `Cc1ccc(-c2cn3c(-c4ccc(C(=O)NC5CC5)cc4)cnc3c(NCC(C)C)n2)cn1` [Example 1-20, N-cyclopropyl-4-{8-[(2-methylpropyl)amino]-6-(6-methylpyridin-3-yl)imidazo[1,2-a]pyrazin-3-yl}benzamide], 2.9 nM.
Consider `CC(C)CNc1nc(-c2cncc(F)c2)cn2c(-c3ccc(C(=O)NC4CC4)cc3)cnc12` [Example 1-21, N-cyclopropyl-4-{6-(5-fluoropyridin-3-yl)-8-[(2-methylpropyl)amino]imidazo[1,2-a]pyrazin-3-yl}benzamide], for which the IC50 is 19.4 nM.
The result for `Cc1nnc(-c2ccc(-c3cn4c(-c5ccc(C(=O)NC6CC6)cc5)cnc4c(NCC(C)C)n3)cc2)o1` [Example 1-22, N-cyclopropyl-4-{6-[4-(5-methyl-1,3,4-oxadiazol-2-yl)phenyl]-8-[(2-methylpropyl)amino]imidazo[1,2-a]pyrazin-3-yl}benzamide] reads 2.3 nM; that for `CC(C)CNc1nc(-c2ccc(S(=O)(=O)n3cccc3)cc2)cn2c(-c3ccc(C(=O)NC4CC4)cc3)cnc12` [Example 1-23, N-cyclopropyl-4-{8-[(2-methylpropyl)amino]-6-[4-(1H-pyrrol-1-yl-sulonyl)phenyl]imidazo [1,2-a]pyrazin-3-yl} benzamide], 13.1 nM.

For the origin of these results see patent publication US20140135319A1, “6-SUBSTITUTED IMIDAZOPYRAZINES FOR USE AS MPS-1 AND TKK INHIBITORS IN THE TREATMENT OF HYPERPROLIFERATIVE DISORDERS” (BAYER INTELLECTUAL PROPERTY GMBH, priority 2010, published 2014).
